Results from US20240189328A1, “COMBINATION OF NOREPINEPHRINE REUPTAKE INHIBITOR AND A C[…] USE IN TREATING SLEEP APNEA” (APNIMED, INC. (DELAWARE), priority 2021, published 2024).

System: participants with moderate to severe OSA
Test: Open-label 4-period dose-escalation study of dronabinol+atomoxetine, polysomnography (Example 3)
Assay type: in vivo, human
Settings: atomoxetine 80 mg alone, week 1 PSG, compared to baseline
From the text: This study is designed to assess the safety and efficacy for OSA of three escalating dose combinations of atomoxetine with dronabinol, compared to baseline and to atomoxetine alone.
The present study (SEED) is an open-label, 4 consecutive period dose-escalation study of combinations of atomoxetine and dronabinol in participants with moderate to severe OSA. Participants will undergo initial pre-screening to determine potential study eligibility. […] Only participants who meet all non-PSG enrollment criteria at Visit 1 are eligible for a screening PSG. On a case by case basis and with agreement of the Sponsor a PSG conducted at the site within 3 months may be used instead of the Screening PSG.
Participants who meet all enrollment criteria will receive an escalating dose of atomoxetine the first week: 3 days of atomoxetine 40 mg followed by 4 days of atomoxetine 80 mg. Participants will then receive escalating dose combinations of atomoxetine and dronabinol for the next 3 weeks. The weekly dose schedule is as follows: • Week 1: atomoxetine 40 mg×3 days, then 80 mg×4 days • Week 2: atomoxetine 40 mg/dronabinol 2.5 mg • Week 3: atomoxetine 80 mg/dronabinol 5 mg • Week 4: atomoxetine 80 mg/dronabinol 10 mg […]

For `CNCCC(Oc1ccccc1C)c1ccccc1` (single isomer, unassigned; (-)) [Ato 80 mg, (−)-N-Methyl-3-phenyl-3-(o-tolyloxy)-propylamine], the “Hypoxic burden (HB4)” value was “significantly reduced”.
